# Data: patent publication US7250157B2, “Dermatological compositions and methods” (Applied Genetics Incorporated Dermatics, priority 1996, dated 2007)
# Several values for one entry are separate records, joined by “and”; a condition that tells them apart may be missing. Identical values can stand only once.
# What was measured:
# [1] = tested on: Cloudman S91 mouse melanoma cell line; assay: Melanin content of S91 cells after treatment with test compound; assay type: cell-based
# Summary of the method: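 Mouse S91 melanoma cells seeded at 10^5 cells/35 mm dish in 10% calf serum and cultured with test compound 6 days at 37 °C, 5% CO2. Differentiation scored microscopically, trypsin detachment time recorded, cells counted; melanin measured by absorbance at 475 nm and expressed as pg melanin/cell.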
# [2] = tested on: Cloudman S91 mouse melanoma cell line; assay: Cell count (proliferation, toxicity) of treated S91 cells; assay type: cell-based; settings: concentrations that induce much higher levels of tyrosinase
# Description: The Cloudman S91 mouse melanoma cell line was obtained from American Type Culture Collection (ATCC). Cells were cultured in Dulbecco's Modified Eagles Medium (DMEM) containing 10% calf serum, 2 mM L-glutamine, 10 U Penicillin/ml and 10 ug Streptomycin/ml according to a previously published protocol (Eller, et al., Proc. Natl. Acad. Sci. 93:1087-92. 1996). For testing propylene glycol and analogues for induction of melanogenesis, S91 cells were plated at 10^5 cells/35 mm dish in 10% calf serum. One day after plating, media was removed and replaced with media containing 2% calf serum and test compounds (Eller, et al., 1996). Cells were cultured for 6 days at 37° C. in 5% CO2 in a humidified incubator. Following this treatment period, cells were examined microscopically and the portion of dedifferentiated and differentiated cells was estimated. Previous studies have shown that dedifferentiated S91 cells have a rounded, spindly appearance while differentiated S91 cells have a flattened, cuboidal, multipolar and dendritic appearance (Orlow, et al., Exp. Cell Res. 191:209-218, 1990).
# Following this microscopic examination, cells were detached from dishes by trypsin. The time required for detachment by trypsin was recorded as an additional indicator of the phenotypic effects of test compounds. For each treatment, a subsample of cells was counted to determine the effects of treatment compounds on cellular proliferation. The remainder of cells were used for determination of melanin content. Melanin was extracted from cells by vortexing for 15 min in 1N NaOH. Standards were prepared by dissolving melanin (Sigma) in 1 N NaOH (Eller, et al., 1996). Absorbance of standards and samples was measured at 475 nm. Melanin was expressed as pg melanin/cell.
# [3] = tested on: Normal human epidermal melanocytes (NHEMs); assay: Melanin induction in normal human epidermal melanocytes; assay type: cell-based
# Description: Normal human epidermal melanocytes (NHEMs) were examined for induction of melanogenesis using cells and media from Clonetics Corporation (San Diego, Calif.). Cells were cultured exactly as specified by the supplier.
# [4] = tested on: American short-haired guinea pigs; assay: Topical melanogenesis (pigmentation rating) in guinea pigs; assay type: in vivo, guinea pig; parameters: Pigmentation Rating / Pigmentation Rating Background Corrected: scale not given here
# Description: Compounds were tested for melanogenic activity in vivo by application to American short-haired guinea pigs. Treatment sites were created by removal of fur using Nair® brand depilatory. In the Table, the numbers presented are the relative melanogenesis rating (mean ±SE), and are arranged according to the relative location on the animal, with the head being to the left and the tail being to the right. Propylene glycol (PG=13.6M), 2,3-butanediol (2,3-BD=10.95M), and 1,2-cis-cyclopentanediol (1,2-cs-CPD=10.7M) were applied as full strength solutions. 3,3-dimethyl-1,2-butanediol (3,3-M-1,2-BD) was applied as a 4M solution dissolved in ethanol. Two weeks following cessation of treatments, the degree of pigmentation was subjectively rated according to the following scale:
# In order to minimize the effects of dimunition of response from head to tails of animals, all future experiments were done using only treatment spots located towards the tails of animals (c and d in Table 7). Deemed as additionally beneficial, in this area of the animal differences of responsiveness to strong and weak inducers of pigmentation, as deduced from cell culture, were greatest. […] Pigmentation ratings were corrected for background (control treatment spots), normalized to 1M to account for the different amounts of each agent applied, and then normalized to results for 1,2-PG (Table 8). […] It is anticipated that further improvements in formulation will additionally improve responsiveness to 5-NBene-2,2-DM and other compounds in this invention.
# In FIG. 5, a, b, c and d indicate treatment spots that transverse the anterior-posterior axis along the backs of guinea pigs.
# [5] = tested on: Tyrosinase in normal human epidermal melanocytes (NHEM); assay: Tyrosinase in NHEM (in situ, cellular, extracellular particulate, media); assay type: cell-based
# Description: Tyrosinase was measured in normal human epidermal melanocytes (NHEM) using procedures identical to those described for S91 cells (Example 6), […], 1600×g, or 17,300×g for analysis of tyrosinase activity in the extracellular exported melanosomal particulate fraction, and in the resultant supernatant media fraction. In some cases (Table 11), tyrosinase was also measured by an in situ assay wherein radiolabelled tyrosine was added directly to freshly replaced media of NHEM for a period of 24 hrs following a 5 day treatment period (Abdel-Malek, et al., 1992, J. Cell. Physiol. 150:416-425). […] Both 5 mM 5-NBene-2,2-DM and 25 mM 3,3-M-1,2-BD induced more tyrosinase in each of these assays and fractions than did 1,2-PG. IBMX (3-isobutyl-1-methyl-xanthine) provided as a positive control, induced as much tyrosinase as 5 mM 5-NBene-2,2-DM in the in situ assay, but less in cellular, extracellular particulate and media fractions (Table 11).
# [6] = tested on: tyrosinase activity in S91 mouse melanoma cells; assay: Induction of tyrosinase activity in S91 cells; settings: 300 mM PG-1,2; 25 mM 3,3-M-1,2-BD; 50 mM 1,2-cs-CPD; 5 mM 5-NBene-2,2-DM; 0.5 mM 2,3-Pyd; 0.1 mM IBMX; mean ±SE
# [7] = No Penetration Enhancer, concentrations as E85
# [8] = 5 day treatment, concentrations as E130
# [9] = pair of replicates, concentrations as E130
compound,measurement,setting,value
"CC(C)(C)C(O)CO (stereo not drawn) [3,3-M-1,2-BD, 3,3-dimethyl-1,2-butanediol]",Concentration Required for ≧2-fold Melanin Induction in S91 Cells,[1],10 mM
same,toxicity to S91 cells,[2],nontoxic
same,Concentration Required for ≧1.5-fold Melanin Induction in NHEMs,[3],12.5 mM
same,"Pigmentation Rating Normalized to 1,2-PG",[4]; [7],18.1 ± 6.8
same,Pigmentation Rating Normalized to 1M,[4]; [7],0.272 ± 0.102
same,Pigmentation Rating Background Corrected,"[4]; No Penetration Enhancer, corrected for Nair control, concentrations as E85",1.09 ± 0.41
same,Pigmentation Rating,"[4]; No Penetration Enhancer, sites c and d, 13.61M 1,2-PG, 11.0M 2,3-M-2,3-BD, 11.3M 2-M-1,3-PG, 8.7M 1,2-cs-CPD, 4.0M 3,3-M-1,2-BD",1.17 ± 0.44
same,greater melanogenesis than PG applied at similar body locations,"[4]; guinea pig, 5 days",4.5 fold
same,"relative melanogenesis rating (mean ±SE), scale 0-4","[4]; site c, 25 μl twice per day for 5 days, rated two weeks after, full strength, 3,3-M-1,2-BD 4M in ethanol",1.16 ± 0.66^2
same,Tyrosinase In Situ,"[5]; 5 day treatment, 300 mM 1,2-PG, 25 mM 3,3-M-1,2-BD, 5 mM 5-NBene-2,2-DM, 0.1 mM IBMX",20.5 dpm/hr/10^3 Cells and 21.0 dpm/hr/10^3 Cells
same,Tyrosinase 200 g Partic,[5]; [8],1646 dpm/hr/10^3 Cells and 2226 dpm/hr/10^3 Cells
same,Tyrosinase Cellular,[5]; [8],11728 dpm/hr/10^3 Cells and 11730 dpm/hr/10^3 Cells
same,Tyrosinase 17300 g Partic,"[5]; Post 200 X g, 5 day treatment, concentrations as E130",536 dpm/hr/10^3 Cells and 425 dpm/hr/10^3 Cells
same,Tyrosinase Media,"[5]; Post 17300 X g, 5 day treatment, concentrations as E130",5495 dpm/hr/10^3 Cells and 3056 dpm/hr/10^3 Cells
same,"Tyrosinase 200 g Partic, relative to controls (in parentheses)",[5]; [9],(5.64X)
same,"Tyrosinase 17300 g Partic, relative to controls (in parentheses)",[5]; [9],(4.20X)
same,"Tyrosinase Cellular, relative to controls (in parentheses)",[5]; [9],(1.15X)
same,"Tyrosinase In Situ, relative to controls (in parentheses)",[5]; [9],(1.31X)
same,"Tyrosinase Media, relative to controls (in parentheses)",[5]; [9],(2.75X)
same,Tyrosinase dpm/hr 10^3 Cells,[6],1211 ± 38 dpm/hr/10^3 Cells
same,Tyrosinase dpm/hr ug Protein,[6],1746 ± 220 dpm/hr/ug Protein
